Where a name gives a salt, the structure may show the parent alone.
target: CK2A1 (CK2α/β) (Homo sapiens, UniProt P68400); assay: CK2 kinase assay, CK2A1 (CK2α/β); assay type: biochemical; settings: Table A; read-out: CK2A1 (CK2α/β) (IC50)
Sequence (P68400 whole entry, species assumed): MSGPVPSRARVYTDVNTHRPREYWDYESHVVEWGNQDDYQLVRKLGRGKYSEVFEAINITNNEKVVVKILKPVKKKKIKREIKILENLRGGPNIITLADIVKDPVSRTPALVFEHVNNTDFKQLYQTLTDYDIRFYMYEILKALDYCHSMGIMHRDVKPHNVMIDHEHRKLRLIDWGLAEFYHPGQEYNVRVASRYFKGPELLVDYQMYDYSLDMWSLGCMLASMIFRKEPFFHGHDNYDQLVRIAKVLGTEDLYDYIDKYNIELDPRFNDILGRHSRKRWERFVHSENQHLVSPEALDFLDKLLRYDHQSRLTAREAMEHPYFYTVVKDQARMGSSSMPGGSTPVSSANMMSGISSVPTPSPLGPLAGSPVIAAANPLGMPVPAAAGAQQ
Sequence (P67870 whole entry partner, species assumed): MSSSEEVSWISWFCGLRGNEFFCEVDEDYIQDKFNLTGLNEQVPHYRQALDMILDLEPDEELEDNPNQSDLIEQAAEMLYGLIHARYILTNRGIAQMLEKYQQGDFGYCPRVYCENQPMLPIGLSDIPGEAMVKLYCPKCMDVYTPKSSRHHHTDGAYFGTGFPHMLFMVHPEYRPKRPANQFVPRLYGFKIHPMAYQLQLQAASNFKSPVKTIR

Row | Structure (SMILES) | IC50 [nM]
1 | N#Cc1cc(Nc2nc(NC3CC3)c3ncc(C#N)n3n2)c(Cl)c(N2CCN(C3CN(CC(O)CF)C3)CC2)c1 (centres unmarked) [Example 614, 2-[(2-chloro-5-cyano-3-{4-[1-(3-fluoro-2-hydroxypropyl)azetidin-3-yl]piperazin-1-yl}phenyl)amino]-4-(cyclopropylamino)imidazo [2,1-f][1,2,4]triazine-7-carbonitrile] | 2.5
2 | N#Cc1cc(Nc2nc(NC3CC3)c3ncc(C#N)n3n2)c(Cl)c(N2CCN(CC(N)=O)CC2=O)c1 [Example 623, 2-(4-(2-chloro-5-cyano-3-((7-cyano-4-(cyclopropylamino)imidazo[2,1-f][1,2,4]triazin-2-yl)amino)phenyl)-3-oxopiperazin-1-yl)acetamide] | 3.05
3 | COC(=O)N[C@@H]1CCN(c2cc(C#N)cc(Nc3nc(NC4CC4)c4ncc(C#N)n4n3)c2Cl)C[C@H]1OC(=O)[C@@H](N)C(C)C (racemic) [Example 192, (+/−)-(R)-(3S,4S)-1-(2-chloro-5-cyano-3-((7-cyano-4-(cyclopropylamino)imidazo[2,1-f][1,2,4]triazin-2-yl)amino)phenyl)-4-((methoxycarbonyl)amino)piperidin-3-yl 2-amino-3-methylbutanoate] | 2.12
4 | COCCOC(=O)N1CCN(c2cc(C#N)cc(Nc3nc(NC4CC4)c4ncc(C#N)n4n3)c2Cl)CC1 [Example 68, 2-methoxyethyl 4-(2-chloro-5-cyano-3-((7-cyano-4-(cyclopropylamino)imidazo[2,1-f] [1,2,4]triazin-2-yl)amino)phenyl)-1-piperazinecarboxylate] | 0.67
5 | CC(O)C1(N2CCN(c3cc(C(F)F)cc(Nc4nc(NC5CC5)c5ncc(C#N)n5n4)c3Cl)CC2)COC1 (centres unmarked) [Example 271, 2-((2-chloro-5-(difluoromethyl)-3-(4-(3-(1-hydroxyethyl)-3-oxetanyl)-1-piperazinyl)phenyl)amino)-4-(cyclopropylamino)imidazo[2,1-f][1,2,4]triazine-7-carbonitrile] | 1.22
6 | N#Cc1cc(Nc2nc(NC3CC3)c3ncc(C#N)n3n2)c(Cl)c(N2CCC3(CC2)COC3)c1 [Example 48, 2-((2-chloro-5-cyano-3-(2-oxa-7-azaspiro[3.5]non-7-yl)phenyl)amino)-4-(cyclopropylamino)imidazo [2,1-f][1,2,4]triazine-7-carbonitrile] | 0.71
7 | CC(=O)N1CC(N2CCN(c3cc(C#N)cc(Nc4nc(NC5CC5)c5ncc(C#N)n5n4)c3Cl)CC2)C1 [Example 480, 2-({3-[4-(1-acetylazetidin-3-yl)piperazin-1-yl]-2-chloro-5-cyanophenyl}amino)-4-(cyclopropylamino)imidazo[2,1-f][1,2,4]triazine-7-carbonitrile] | 0.86
8 | N#CCCN(Cc1cc(C#N)cc(Nc2nc(NC3CC3)c3ncc(C#N)n3n2)c1Cl)CC1CCCO1 (centres unmarked) [Example 474, 2-[(2-chloro-5-cyano-3-{[(2-cyanoethyl)(oxolan-2-ylmethyl)amino]methyl}phenyl)amino]-4-(cyclopropylamino)imidazo[2,1-f][1,2,4]triazine-7-carbonitrile] | 1.55
9 | CC(C)(O)C1CN(c2cc(C(F)F)cc(Nc3nc(NC4CC4)c4ncc(C#N)n4n3)c2Cl)CCO1 (racemic) [Example 280, (+/−) 2-((2-chloro-5-(difluoromethyl)-3-(2-(1-hydroxy-1-methylethyl)-4-morpholinyl)phenyl)amino)-4-(cyclopropylamino)imidazo[2,1-f][1,2,4]triazine-7-carbonitrile] | 2.09
10 | CC(C)(O)C1CCN(C2CN(c3cc(C(F)F)cc(Nc4nc(NC5CC5)c5ncc(C#N)n5n4)c3Cl)C2)CC1 [Example 259, 2-((2-chloro-5-(difluoromethyl)-3-(3-(4-(1-hydroxy-1-methylethyl)-1-piperidinyl)-1-azetidinyl)phenyl)amino)-4-(cyclopropylamino)imidazo[2,1-f][1,2,4]triazine-7-carbonitrile] | 1.29
11 | CC(=O)NCC1(N2CCN(c3cc(C#N)cc(Nc4nc(NC5CC5)c5ncc(C#N)n5n4)c3Cl)CC2)COC1 [Example 540, N-((3-(4-(2-chloro-5-cyano-3-((7-cyano-4-(cyclopropylamino)imidazo[2,1-f][1,2,4]triazin-2-yl)amino)phenyl)piperazin-1-yl)oxetan-3-yl)methyl)acetamide] | 6.02
12 | N#Cc1cc(Nc2nc(NC3CC3)c3ncc(C#N)n3n2)c(F)c(N2CCN(CC(O)CF)CC2)c1 (centres unmarked) [Example 549, 2-((5-cyano-2-fluoro-3-(4-(3-fluoro-2-hydroxypropyl)piperazin-1-yl)phenyl)amino)-4-(cyclopropylamino)imidazo[2,1-f][1,2,4]triazine-7-carbonitrile] | 1.25
13 | CC1(O)CN(C2CN(c3cc(C#N)cc(Nc4nc(NC5CC5)c5ncc(C#N)n5n4)c3Cl)C2)C1 [Example 168, 2-((2-chloro-5-cyano-3-(3-hydroxy-3-methyl-1,3′-biazetidin-1′-yl)phenyl)amino)-4-(cyclopropylamino)imidazo [2,1-f][1,2,4]triazine-7-carbonitrile] | 0.68
14 | CN1CCC2CN(c3cc(C#N)cc(Nc4nc(NC5CC5)c5ncc(C#N)n5n4)c3Cl)CCC21 (centres unmarked) [Example 443, 2-((2-chloro-5-cyano-3-(1-methylhexahydro-1H-pyrrolo[3,2-c]pyridin-5(6H)-yl)phenyl)amino)-4-(cyclopropylamino)imidazo[2,1-f][1,2,4]triazine-7-carbonitrile] | 2.93
15 | N#Cc1cc(Nc2nc(NC3CC3)c3ncc(C#N)n3n2)c(Cl)cc1CCCN1CCOCC1 [Example 567, 2-((2-chloro-5-cyano-4-(3-morpholinopropyl)phenyl)amino)-4-(cyclopropylamino)imidazo[2,1-f][1,2,4]triazine-7-carbonitrile] | 4.06
16 | N#Cc1cc(Nc2nc(NC3CC3)c3ncc(C#N)n3n2)c(Cl)c(N2CCN(C(=O)CO)CC2)c1 [Example 78, 2-(2-chloro-5-cyano-3-(4-(2-hydroxyacetyl)piperazin-1-yl)phenylamino)-4-(cyclopropylamino) imidazo[1,2-f][1,2,4] triazine-7-carbonitrile] | 0.41
17 | N#Cc1cc(NCCO)c(Cl)c(Nc2nc(NC3CC3)c3ncc(C#N)n3n2)c1 [Example 615, 2-((2-chloro-5-cyano-3-((2-hydroxyethyl)amino)phenyl)amino)-4-(cyclopropylamino)imidazo[2,1-f][1,2,4]triazine-7-carbonitrile] | 0.18
18 | N#Cc1cnc2c(NC3CC3)nc(Nc3cc(C(F)F)cc(N4CC(NCC(O)CO)C4)c3Cl)nn12 (racemic) [Example 261, (+/−) 2-((2-chloro-5-(difluoromethyl)-3-(3-((2,3-dihydroxypropyl)amino)-1-azetidinyl)phenyl)amino)-4-(cyclopropylamino)imidazo[2,1-f][1,2,4]triazine-7-carbonitrile] | 2.44

Other lines, results leading:

Row | IC50 [nM] | Structure (SMILES)
19 | 3 | N#Cc1cc(Nc2nc(NC3CC3)c3ncc(C#N)n3n2)c(Cl)c(N2CCN(CCO)CC2=O)c1 [Example 634, 2-((2-chloro-5-cyano-3-(4-(2-hydroxyethyl)-2-oxopiperazin-1-yl)phenyl)amino)-4-(cyclopropylamino)imidazo[2,1-f][1,2,4]triazine-7-carbonitrile]
20 | 1.22 | CC(c1cc(C#N)cc(Nc2nc(NC3CC3)c3ncc(C#N)n3n2)c1Cl)N1CCNC(=O)C1 (racemic) [Example 679, (+/−)-2-((2-chloro-5-cyano-3-(1-(3-oxopiperazin-1-yl)ethyl)phenyl)amino)-4-(cyclopropylamino)imidazo[2,1-f][1,2,4]triazine-7-carbonitrile]
21 | 1.81 | CC(C)(C)NCC(O)c1cc(C#N)cc(Nc2nc(NC3CC3)c3ncc(C#N)n3n2)c1Cl (centres unmarked) [Example 692, 2-((3-(2-(tert-butylamino)-1-hydroxyethyl)-2-chloro-5-cyanophenyl)amino)-4-(cyclopropylamino)imidazo[2,1-f][1,2,4]triazine-7-carbonitrile]
22 | 1.28 | CC(C(N)=O)N1CCC(c2cc(C#N)cc(Nc3nc(NC4CC4)c4ncc(C#N)n4n3)c2Cl)CC1 (racemic) [Example 639, (+/−)-2-(4-(2-chloro-5-cyano-3-((7-cyano-4-(cyclopropylamino)imidazo[2,1-f][1,2,4]triazin-2-yl)amino)phenyl)piperidin-yl)propanamide]
23 | 5.96 | CCNc1nc(Nc2cc(C#N)cc(N3CC[C@@H](NC(=O)OC)[C@H](OC(=O)C[C@H]4CC[C@H](N)CC4)C3)c2Cl)nn2c(C#N)cnc12 [Example 820, (3R,4R)-1-(2-chloro-5-cyano-3-((7-cyano-4-(ethylamino)imidazo[2,1-f][1,2,4]triazin-2-yl)amino)phenyl)-4-((methoxycarbonyl)amino)piperidin-3-yl 2-((1r,4R)-4-aminocyclohexyl)acetate hydrochloride]
24 | 0.89 | N#Cc1cc(Nc2nc(NC3CC3)c3ncc(C#N)n3n2)c(Cl)c(N2CCOC(CN3CC(F)C3)C2)c1 (centres unmarked) [Example 705, 2-[(2-chloro-5-cyano-3-{2-[(3-fluoroazetidin-1-yl)methyl]morpholin-4-yl}phenyl)amino]-4-(cyclopropylamino)imidazo[2,1-f][1,2,4]triazine-7-carbonitrile]
25 | 1.44 | CCNc1nc(Nc2ccc3c(c2)c(C#N)cn3C2CCN(C3CN(C(=O)OC)C3)CC2)nn2c(C#N)cnc12 [Example 836, methyl 3-(4-(3-cyano-5-((7-cyano-4-(ethylamino)imidazo[2,1-f][1,2,4]triazin-2-yl)amino)-1H-indol-1-yl)piperidin-1-yl)azetidine-1-carboxylate]
26 | 32.6 | CC(C)N(C1CCN(c2cc(C#N)cc(Nc3nc(NC4CC4)c4ncc(C#N)n4n3)c2Cl)CC1)C1CC(=O)N(C)C1 (centres unmarked) [Example 716, 2-[(2-chloro-5-cyano-3-{4-[(1-methyl-5-oxopyrrolidin-3-yl)(propan-2-yl)amino]piperidin-1-yl}phenyl)amino]-4-(cyclopropylamino)imidazo [2,1-f][1,2,4]triazine-7-carbonitrile]
